According to article PMC2774768 (Journal of the American Chemical Society, 2009):

System: HeLa cells
Assay: Confocal microscopy of peptide uptake and localization
Format: cell-based
Conditions: 1.0 μM peptide, 1 h, serum-free DMEM with 25 mM HEPES pH 7.3, fixed

| Substance | Uptake of peptide at 4 °C, fixed cells (confocal) |
| --- | --- |
| AcK(5-Fam)AKKSRRC(Ger)VLL [compound 4] | still able to enter the cells |
| AcK(5-Fam)C(Acm)KKSRRC(Ger)-NH2 [2a] | substantial uptake of the peptide |
